Calls of active or inactive are those of the source. The calls are words filed in the database; no cut-off is given here.

The values below come from ChEMBL document CHEMBL1146023, “Similar structure-activity relationships of quinoline derivatives for antiprion and antimalarial effects” (J Med Chem, 2006).

The subject of data set [1] is ScN2a. The data set is described as follows: Inhibition of scrapie prion formation in mouse ScN2a cell line. It counts as functional.
Data set [2] has as its system ScN2a. The data set is described as follows: Selectivity index, toxicity against ScN2a cell line/EC50 for scrapie prion formation in mouse ScN2a cell line. It is filed as functional.
Data set [3] relates to ScN2a. The data set is described as follows: Toxicity against ScN2a cell line. It counts as cell-based. The settings on record: mouse.
For data set [4], the system named is Plasmodium falciparum. The data set is described as follows: Antimalarial activity against chloroquine-resistant Plasmodium falciparum FcB1 at 100 nM. It is filed as functional.
Data set [5] concerns ScN2a. The data set is described as follows: Inhibition of scrapie prion formation in mouse ScN2a cell line relative to control. It counts as functional, cell-based.
Data set [6] is described as follows: Toxicity against MRC5 cell line. The following applies: human, MRC5 cells. It counts as cell-based.
Data set [7] deals with ScN2a. The data set is described as follows: Toxicity against ScN2a cell line at 10 uM. It counts as cell-based. The following applies: mouse.
Data set [8] deals with Plasmodium falciparum. The data set is described as follows: microbe, parasite or virus in culture. The following applies: FcB1.
In data set [9] the test system is ScN2a. The data set is described as follows: Inhibition of scrapie prion formation in mouse ScN2a cell line at 200 nM. It is filed as functional, cell-based.
A further data set has as its system MRC5. The data set is described as follows: Selectivity index, toxicity against MRC5 cell line/EC50 for scrapie prion formation in mouse ScN2a cell line. It counts as functional.

What is called inhibition is the relative decrease from the control value, in per cent. Higher therefore signals a response far below the control. The EC50 is the concentration giving half of the maximal effect. Lower therefore signals greater potency. Consider `O=C(NCCCN1CCN(CCCNc2ccnc3cc(Cl)ccc23)CC1)C1c2ccccc2Oc2ccccc21`, for which the Activity in the data set with ScN2a [1] amounted to 300 nM; in the data set on ScN2a [3], 750 nM. Moreover, the Selectivity index in the data set on ScN2a [2] was determined as 7.5. This compound also displayed an inhibition at 0.1 µM with Plasmodium falciparum [4] of 11%. In the data set with ScN2a [5], the EC50 was 100 nM.

By CC50 is commonly meant the concentration giving 50% cytotoxicity. The low end stands for greater toxicity to the cells, the high end for lower toxicity to the cells. Regarding `CCN(CC)CCCC(C)Nc1ccnc2cc(Cl)ccc12` (stereo unspecified) [CHLOROQUINE], the values for the Activity in the data set on ScN2a [1] and in the data set on ScN2a [7] were 10000 nM and “Non-toxic”, respectively. The compound also displayed a CC50 in data set [6] of 50000 nM. Further, the EC50 with ScN2a [5] amounted to 4000 nM.

In the case of `O=C(NCCCN1CCN(CCCNc2ccnc3cc(Cl)ccc23)CC1)c1ccncc1`, the Activity with ScN2a [1] was 5000 nM; in the data set on ScN2a [7], “Non-toxic”. The compound also showed an inhibition at 0.1 µM in the data set with Plasmodium falciparum [4] of 1%. In addition, the EC50 in the data set on ScN2a [5] came to 3000 nM.

As to `O=S(=O)(NCCCN1CCN(CCCNc2ccnc3cc(Cl)ccc23)CC1)c1ccc(Cl)cc1`, the Activity in the data set with ScN2a [1] is 500 nM; in the data set on ScN2a [3], 2000 nM. For the same compound, the Selectivity index with ScN2a [2] was 8. The inhibition at 0.1 µM in the data set with Plasmodium falciparum [4] came out at 26%. This compound yielded a half-maximal effective concentration (EC50) with ScN2a [5] of 250 nM.

A word on the IC50: it is the concentration that gives 50% inhibition. Lower therefore signals greater potency in that assay. Take `CC(C)(C)c1ccc(C(=O)NCCCN2CCN(CCCNc3ccnc4cc(Cl)ccc34)CC2)cc1`: the Activity is given as 200 nM in the data set on ScN2a [1] and 1000 nM in the data set on ScN2a [3]. In the data set with Plasmodium falciparum [8], the IC50 was 54.8 nM. Further, in the data set with ScN2a [9], the outcome was Active. The Selectivity index in the data set with ScN2a [2] is listed as 10. In addition, the EC50 in the data set with ScN2a [5] was found to be 100 nM.

As for `O=C(NCCCN1CCN(CCCNc2ccnc3cc(Cl)ccc23)CC1)c1cccc(Oc2ccccc2)c1`, the Activity in the data set on ScN2a [1] was 300 nM; with ScN2a [3], 750 nM. For the same compound, the Selectivity index stood at 25 in the data set on MRC5 and 3.75 in the data set with ScN2a [2]. In data set [6], this compound showed a CC50 of 5000 nM. The same compound came in with a concentration for a half-maximal effect (EC50) in the data set with ScN2a [5] of 200 nM.

For the compound `O=C(c1ccc2ccccc2c1)N(CCCN1CCN(CCCNc2ccnc3cc(Cl)ccc23)CC1)CC1CC1`, the Activity stood at 300 nM in the data set on ScN2a [1] and 2000 nM in the data set on ScN2a [3]. Also, in the data set with ScN2a [2], the Selectivity index is reported as 26.67. This compound also yielded an inhibition at 0.1 µM in the data set on Plasmodium falciparum [4] of 23%. In the data set on ScN2a [5], this compound returned a half-maximal effective concentration (EC50) of 75 nM.

On to `COc1ccc(C(=O)NCCCN2CCN(CCCNc3ccnc4cc(Cl)ccc34)CC2)cc1`, for which the Activity in the data set with ScN2a [1] was 300 nM; with ScN2a [3] it was 3000 nM. The Selectivity index is reported as 40 in the data set with MRC5 and 30 with ScN2a [2]. For the same compound, in data set [6], the CC50 turned out to be 4000 nM. In addition, the EC50 in the data set on ScN2a [5] was determined as 100 nM.
